Experimental data reported in patent publication US20050118310A1, “Formulations of compounds derived from natural sources and their use with irradiation for food preservation” (priority 2001, published 2005).
Marks after values point to notes of the source that are not given here.

Assays:
E. coli = assay: Irradiation sensitivity (D10) of E. coli in ground beef; type: cell-based, Escherichia coli (ATCC 25922)
S. typhi [1] = assay: Irradiation sensitivity (D10) of S. typhi in ground beef; type: cell-based, Salmonella typhi (ATCC 19430)
Salmonella typhi = assay: Example 4 irradiation sensitivity (D10) of S. typhi in ground beef; type: cell-based; settings: carvacrol 1.15%, thymol 1.60%
Method: (§1) Irradiation treatments of ground beef samples for D10 and shelf life determination were performed using UC-15B irradiator (MDS-Nordion International Inc., Kanata, ON, Canada) equipped with a ^60 Co source at a dose rate of 14.42 kGy/h). Irradiation doses used for D10 determination were ranged from 0.25 to 0.55 kGy for E. coli, from 0.50 to 2.0 kGy for S. typhi, and from 0.5 to 2.5 kGy for the mixture of indigenous microorganisms of ground beef. The shelf life study was performed on samples irradiated at 0.30, 0.85, and 1.75 kGy for E. coli, S. typhi, and the mixture of indigenous microorganisms of ground beef, respectively. For each active compound concentration tested, a group of non-irradiated samples sened as a control. For D10 determination, samples were analysed immediately after irradiation. For shelf life studies, samples were stored at 4° C. and analysed periodically.
(§2) Microbial analysis was performed by homogenising the samples for 2 mn in sterile peptone water (0.1%) using a Lab-blender 400 stomacher (Laboratory Equipment, London, UK). […]
(§3) The kinetics of bacteria destruction by irradiation with or without the food additives was evaluated by linear regression. Bacterial counts (log CFU/ml) were plotted against irradiation doses or active compounds concentration and D10 values were calculated using the PROC REG procedure of SAS (SAS Institute, Cary, N.C., USA). […]

S. typhi [2] = assay: Shelf life study, S. typhi in ground beef irradiated at 0.85 kGy; type: cell-based, Salmonella typhi; settings: stored at 4° C., thymol 1.6%
Method: as §1
(§4) Microbial analysis was performed by homogenising the samples for 2 mn in sterile peptone water (0.1%) using a Lab-blender 400 stomacher (Laboratory Equipment, London, UK). From this mixture, serial dilutions were prepared and appropriate ones were pour-plated in tryptic soy agar (TSA) (Difco, Laboratories, Detroit, Mich., USA) and incubated at 35° C., 24 hours for the numeration of E. coli and S. typhi. For the ground beef broth, the incubation was performed on Plate Count Agar (PCA; Difco) at 35° C. for 48 h for the numeration mesophilic bacteria, and at 7° C. for 10 days for the numeration of psychrotrophic bacteria. Enterobacteriaceae were numerated on Violet Red Bile Glucose Agar (VRBGA; Difco) 35° C. for 48 hours.
(§5) A shelf life study was undertaken to evaluate the radiation sensitivity during refrigerated storage conditions. Ground beef samples contaminated with E. coli, S. typhi, or a mixture of indigenous micro-organisms were irradiated in presence or absence of selected active compounds. Due to the differences in sensitivity between the micro-organisms under study, the following irradiation doses were used: 0.30 kGy for E. coli, 0.85 kGy for S. typhi, and 1.75 kGy for the mixture of indigenous bacteria. The irradiation doses selected corresponded to the irradiation dose needed to produce 3 log CFU reduction in bacterial population in the control sample (without active compounds).

[3] = system: Mixture of indigenous bacteria; assay: Example 4 irradiation sensitivity (D10) of indigenous bacteria of ground beef; type: cell-based; settings: thymol […], trans-cinnamaldehyde […]
Method: as §1, §2, §3

[4] = system: mixture of indigenous microorganisms of ground beef (mesophilic and psychrotrophic bacteria); assay: Shelf life study, indigenous micro-organisms of ground beef, statements for mesophilic and psychrotrophic bacteria together; type: cell-based; settings: for reduction of bacterial counts by irradiation: control 3 log CFU; for storage time before a bacterial count of approximately 6 log is reached: meat treated with formulation in conjunction with irradiation, about 8 days with irradiation alone
Method: as §1, §4, §5
(§6) The shelf life study in ground beef contaminated with the mixture of indigenous microorganisms of ground beef was conducted by evaluating mesophilic, psychrotrophic and total Enterobacteriaceae in the samples. […] Irradiation reduced the bacterial counts by various degrees depending on the type of active compound used: 3 log CFU reduction for control (without active compounds), 3.5 and more than 5 log CFU reduction for samples containing thymol and trans-cinnamaldehyde, respectively. […] Bacterial counts in both sarnples remained below detectable levels even after 44 days. […] A similar effect was also observed during storage for irradiated samples containing thymol as compared to samples without thymol. Between day 5 and day 15, a difference of 2 to 3 log CFU was observed between the two groups of samples.

mesophilic bacteria = assay: Shelf life study, indigenous micro-organisms of ground beef, mesophilic count; type: cell-based; settings: for shelf life period: 4° C., thymol […]
Method: as §1, §4, §5, §6

psychrotrophic bacteria = assay: Shelf life study, indigenous micro-organisms of ground beef, psychrotrophic count; type: cell-based
Method: as §1, §4
A shelf life study was undertaken to evaluate the radiation sensitivity during refrigerated storage conditions. Ground beef samples contaminated with E. coli, S. typhi, or a mixture of indigenous micro-organisms were irradiated in presence or absence of selected active compounds. […]

[5] = ground beef, air, 4° C., carvacrol 1.0% alone or with ascorbic acid 0.5% and/or tetrasodium pyrophosphate 0.1%
[6] = ground beef irradiated at 1.75 kGy, thymol […], trans-cinnamaldehyde […]
[7] = ground beef packed under MAP (60% O2-30% CO2-10% N2), 4° C., trans-cinnamaldehyde […]
[8] = ground beef packed under air, 4° C., trans-cinnamaldehyde […]
[9] = ground beef under MAP, trans-cinnamaldehyde […] vs control under the same atmosphere
[10] = ground beef under air, trans-cinnamaldehyde […] vs control under the same atmosphere
[11] = ground beef, MAP vs air, both with trans-cinnamaldehyde […]
[12] = under MAP, trans-cinnamaldehyde […]
[13] = under air, trans-cinnamaldehyde […]
[14] = ground beef irradiated at 1.75 kGy, stored at 4° C., trans-cinnamaldehyde […]
[15] = trans-cinnamaldehyde alone (no irradiation), stored at 4° C.

In the case of `Cc1ccc(C(C)C)cc1O` [Carvacrol, carvacrol], the “D10(kGy)” value (E. coli; [5]) was 0.057 ± 0.0015^a kGy, the “irradiation dose necessary to completely eliminate E. coli” value (E. coli; [5]) was 0.3 kGy and the “factor by which the irradiation dose necessary to completely eliminate E. coli is lower than in the absence of active compounds” value (E. coli; ground beef, air, 4° C., carvacrol 1.0% alone or with tetrasodium pyrophosphate 0.1%) was 2.3. The “Increase in Sensitivity” value (E. coli; vs control, negative = protective effect, ground beef, air, 4° C., carvacrol 1.0% alone or with ascorbic acid 0.5% and/or tetrasodium pyrophosphate 0.1%) was 55.5%, the “D10(kGy)” value (S. typhi [1]; [5]) was 0.235 ± 0.0158^a kGy and the “irradiation dose for complete elimination of S. typhi” value (S. typhi [1]; [5]) was 1.25 kGy. For the same compound, the “Increase in Sensitivity” value (S. typhi [1]; vs control (0.519 kGy), ground beef, air, 4° C., carvacrol 1.0% alone or with ascorbic acid 0.5% and/or tetrasodium pyrophosphate 0.1%) was 54.7%, the “D10(kGy)” value (Salmonella typhi) was 0.316 kGy and the “days of storage after which complete inhibition was produced” value (S. typhi [2]; carvacrol 1.15%) was 22 days.
`Cc1ccc(C(C)C)c(O)c1` [Thymol, thymol] was tested, and the “D10(kGy)” value (Salmonella typhi) was 0.382 kGy, the “D10(kGy)” value [3] was 0.779 kGy and the “days of storage after which complete inhibition was produced” value (S. typhi [2]; carvacrol 1.15%) was 28 days. The “bacterial counts compared with the irradiated control after 15 days of storage” value (S. typhi [2]; carvacrol 1.15%, lower than control) was “sinilar in both cases”, the “difference between samples irradiated in presence and absence of compound at day 7” value (S. typhi [2]) was 3 log CFU and the “complete inhibition during storage” value ([4]; ground beef irradiated at 1.75 kGy, stored at 4° C., thymol […]) was “no complete inhibition”. For the same compound, the “level of bacteria observed for irradiated samples during storage” value ([4]; ground beef irradiated at 1.75 kGy, stored at 4° C., thymol […], 10^7 without thymol) was 10^4 CFU/g, the “reduction of bacterial counts by irradiation” value [4, 6] was 3.5 log CFU and the “storage time before a bacterial count of approximately 6 log is reached” value [4] was 15 days. It also gave a shelf life period (mesophilic bacteria; irradiated samples (1.75 kGy), control 8 days) of 23 days, a shelf life period (mesophilic bacteria; non-irradiated samples, control 2 days) of 8 days and a shelf life period (psychrotrophic bacteria; non-irradiated samples, 4° C., thymol […], control 2 days) of 9 days.
With `O=C/C=C/c1ccccc1` [Trans-cinnamaldehyde, trans-cinnamaldehyde] the “D10(kGy)” value (E. coli; [7]) was 0.046 ± 0.001^b* kGy, the “D10(kGy)” value (E. coli; [8]) was 0.115 ± 0.004^a* kGy and the “Increase in Sensitivity” value (E. coli; [9]) was 46.5%. For the same compound, the “Increase in Sensitivity” value (E. coli; [10]) was 8.7%, the “increase in irradiation sensitivity by modification of the packaging atmosphere” value (E. coli; [11]) was 60% and the “irradiation dose needed to completely eliminate E. coli from the ground beef” value (E. coli; [12]) was 0.25 kGy. For the same compound, the “irradiation dose needed to completely eliminate E. coli from the ground beef” value (E. coli; [13]) was 0.6 kGy, the “irradiation dose to completely eliminate E. coli from ground beef” value (E. coli; [13]) was 0.2 kGy and the “D10(kGy)” value (S. typhi [1]; [7]) was 0.110 ± 0.002^b* kGy. The “D10(kGy)” value (S. typhi [1]; [8]) was 0.356 ± 0.005^a* kGy, the “Increase in Sensitivity” value (S. typhi [1]; [9]) was 50.2% and the “Increase in Sensitivity” value (S. typhi [1]; [10]) was 32.3%. For the same compound, the “increase in irradiation sensitivity by modification of the packaging atmosphere” value (S. typhi [1]; [11]) was 69.1%, the “irradiation dose required to completely eliminate S. typhi from the ground beef” value (S. typhi [1]; [12]) was 0.6 kGy and the “irradiation dose required to completely eliminate S. typhi from ground beef” value (S. typhi [1]; under air, trans-cinnamaldehyde 0.89%) was 0.75 kGy. The “irradiation dose required to completely eliminate S. typhi from the ground beef” value (S. typhi [1]; [13]) was “around 2 kGy”, the “D10(kGy)” value [3] was 0.494 kGy and the “days for which bacterial counts remained below detectable levels” value [4, 14] was at least 44 days. For the same compound, the “reduction of bacterial counts by irradiation” value [4, 6] was “more than 5 log CFU”, the “storage time before a bacterial count of approximately 6 log is reached” value [4] was “more than 35 days” and the “days after which complete inhibition of bacterial growth resulted” value (mesophilic bacteria; [14]) was 3 days. The “bacteria counts at day 44” value (mesophilic bacteria; [15]) was about 1 log CFU/g, the “bacterial population reached after 36 days of storage” value (mesophilic bacteria; without irradiation, stored at 4° C., trans-cinnamaldehyde […]) was 1 log CFU and the “days after which complete inhibition of bacterial growth resulted” value (psychrotrophic bacteria; [14]) was 1 days. The “day of storage at which complete inhibition occurred” value (psychrotrophic bacteria; [15]) was 36 days.
